# In patent publication US20200230136A1, “SELECTIVE ADRENORECEPTOR ALPHA2C RECEPTOR ANTAGONISTS ALONE, OR IN COMBINATION WITH CHYMASE INHIBITORS FOR USE IN THE TREATMENT AND/OR PROPHYLAXIS OF PERIPHERAL ARTERY DISEASES (PAD)” (Bayer Aktiengesellschaft, priority 2017, published 2020):
# Columns and labels:
# Type in all cases: in vivo
# [1] = tested on: atherosclerotic ApoE-/- mice, hindlimb ischemia; experiment: Effects on running distance in apolipoprotein E knockout mice after hindlimb ischemia
# Protocol: To evaluate effects more closely, the percent change in running distance compared to the run-in values (2 week run-in period before ligature) of all animals were analyzed.
# FIG. 8: Effects of Compound of Ex. 8 on daily running distance in atherosclerotic ApoE-/- mice before and after induction of bilateral hindlimb ischemia (mean±SEM; 10 to 11 animals) • ApoE-/-=apolipoprotein E knockout; Ctrl.=control; SEM=standard error of mean
# [2] = tested on: full-thickness wounds in STZ-challenged minipigs; experiment: Wound healing in streptozotocin (STZ)-challenged minipigs
# Protocol: Wounds (twelve 15.15-mm full-thickness wounds) were induced in STZ-challenged minipigs. STZ challenge (160 mg/kg) was performed 14 days before wounding in 15 animals, two out of 15 animals had to be sacrificed due to blood glucose instability. The remaining 13 animals (body weight around 25 kg: 27.92±2.35 kg on the day of STZ dosing, Day 0: 24.35±2.14 kg and Day 17: 23.27±2.24 kg) were randomized to 3 groups:
# Group I) placebo: Animal 1, 8, 10 and 13; Group II) 0.6 mg/kg Compound of Ex 8: Animal 2, 7, 11 and 12; Group III) 0.1 mg/kg Compound of Ex. 8: Animal 3, 4, 6, 14 and 15
# Oral gavage was done by gelatin capsules containing Compound of Ex. 8 or lactose as placebo (25 kg body weight was assumed for all animals).
# Topical treatment was performed using Compound of Ex. 8 in a concentration of 0.06 mg/mL in a Pluronic® gel matrix or as placebo Pluronic® gel at a volume of 1 mL per wound. The whole study was performed in a blinded manner. The 12 wounds per animal were treated according to Table 1 to combine oral treatment with and without topical treatment in this study. Wounds were closed by a sterile reclosable bag system. Animals were treated orally BID for 17 days starting after wounding (Day 0) and topically once daily on Days 0, 2, 5, 8, 11 and 14. On Day 17, wounds were harvested and animals sacrificed.
# The primary endpoint of this study was wound size over study time. Wound size was evaluated via photographs and evaluated by photoshop under blinded conditions. Wound size was shown in absolute numbers as well as percent size vs. wound size on Day 0. In addition, re-epithelialization as well as wound contracture were determined The mean of all 12 wounds per animal was compared to Day 0. […] Between Day 5 and Day 11, a differentiation between the animals was observed.
# [3] = tested on: ischemic wounds in New Zealand white rabbits; experiment: Wound healing in the ischemic rabbit ear model
# Protocol: Ischemic wounds (three 7 mm full-thickness dermal punches on the inner surface of both ears) were induced in New Zealand white rabbits. Oral gavage was done through a nasogastric tube or catheter. 20 rabbits were treated with Compound of Ex. 8 (0.3 mg/kg; n=10) or vehicle (10% ethanol, 30% PEG 400, 60% tap water, n=10) through the catheter daily at multiple time points [post-wounding days (POD) 3, 4, 5, 6 and 7]. Wounds were harvested on POD 10. For histologic analysis, one-half of wounds including the surrounding normal skin in rectangular shape was taken. One-half of the wound was frozen for further molecular analysis. Tissues underwent routine processing, paraffin embedding, and sectioning. A 4 μm cross section through the center of each rectangular biopsy was taken. The tissues were stained with hematoxylin and eosin and examined under light microscopy. Several histomorphometric measurements were determined, using a digital image analysis system (NIS-Elements Basic Research; Nikon Instech Co, Kanagawa, Japan) at 2 fold and 10 fold magnification. Each parameter was measured in a blinded manner.
# In addition, tissue oxygen tension and blood flow were examined by the OxyLite® system (Oxford Optronix). Oxygen tension and blood flow were measured on POD 3, 7 and 10 in each rabbit. The oxygen tension unit is mmHg and the blood flow unit is blood PUs. The results were presented as ratio of O2-ischemia/O2-non-ischemia, or flow-ischemia/flow-non-ischemia. Analysis was performed by comparison between control and treatment groups on POD 3, 7 and 10.
# [4] = tested on: diabetic ZDF fa/fa rats, ligature of the left iliac artery; experiment: Effects on ankle-brachial index in ZDF rats (unilateral hindlimb ischemia model)
# Protocol: Compound of Ex. 8 induced a 10 to 30% improvement in the perfusion index (FIG. 7). […] Corresponding plasma concentrations were measured between 4 and 47 μg/L.
# FIG. 6: Effects of Compound of Ex. 8 on perfusion pressure indices. Shown are baseline value (Od) as well as perfusion pressure indices after ligature of the left iliac artery and 2 weeks of daily treatment (14 d) with Compound of Ex. 8 in diabetic ZDF fa/fa rats (raw data; 10 animals) • Student t-test, Compound of Ex. 8 versus vehicle; ZDF=Zucker diabetic fatty
# FIG. 7: Percent change in perfusion pressure indices by Compound of Ex. 8 after 14 days (14 d) of daily treatment compared to baseline values (mean±SEM; 10 animals) • SEM=standard error of mean; ZDF=Zucker diabetic fatty
# [5] = 0.6 mg treated wounds vs placebo
compound,measurement,setting,value
"O=C(c1cnc(N2CC3(COC3)C2)nc1)N1CCC(N2CCc3ccccc3C2)CC1 [Compound of Ex. 8, [4-(3,4-Dihydroisoquinolin-2(1H)-yl)piperidin-1-yl][2-(2-oxa-6-azaspiro[3.3]hept-6-yl)pyrimidin-5-yl]methanone]","total running distance, percent change vs run-in values",[1]; 10 μg/ml (FIG. 9),tendency toward an improvement
same,"running distance, area under the curve from Day 0 to Day 28",[1]; 30 μg/kg vs placebo,significant improvements compared to placebo
same,"running distance, percent change vs run-in values","[1]; 30 μg/kg, several days during the 4 week observation period (FIG. 10)",significant improvement in running distance
same,"running distance, area under the curve from Day 0 to Day 28",[1]; 100 μg/kg vs placebo,significant improvements compared to placebo
same,"running distance, percent change vs run-in values","[1]; 100 μg/kg, several days during the 4 week observation period (FIG. 11)",significant improvement in running distance
same,running distance,"[1]; oral administration of 10, 30 and 100 μg/mL, after induction of hindlimb ischemia (FIG. 8)",increase in running distance
same,"wound size, wounds without topical treatment (Wounds 1 to 6)","[2]; 0.1 mg/kg oral BID vs placebo, Day 2 (P=0.011) and Day 5 (P=0.014)",significant improvement vs. placebo
same,wound contracture,"[2]; 0.1 mg/kg oral BID, Day 2, 5, 8, 11 and 17",improvement in wound contracture being significant
same,course of wound healing (variability),"[2]; 0.1 mg/kg oral BID, between Day 5 and Day 11",greater heterogeneity
same,histology: cell proliferation,[2]; [5],reduced cell proliferation
same,histology: collagen III/I ratio,[2]; [5],lower collagen III/I ratio
same,histology: detectable vessels,[2]; [5],more detectable vessels
same,histology: differentiation level of the epidermis,[2]; [5],increased differentiation level of the epidermis
same,histology: inflammation,[2]; [5],reduced inflammation
same,histology: re-epithelialization level,[2]; [5],higher re-epithelialization level
same,histology: structuring of basement membranes defined by laminin detection,[2]; [5],increased structuring of basement membranes
same,histological evaluation of wound healing,"[2]; 0.6 mg treated wounds vs placebo, wounds harvested Day 17",more advanced wound healing
same,"wound size over time, mean of all wounds","[2]; 0.6 mg/kg oral BID 17 days vs placebo, all 12 wounds per animal, all days (FIG. 1)",significantly improved wound healing
same,"wound size, wounds without topical treatment (Wounds 1 to 6)","[2]; 0.6 mg/kg oral BID vs placebo, all values (FIG. 2)",significantly better compared to the placebo group
same,wound contracture,"[2]; 0.6 mg/kg oral BID, Day 2, 5, 8 and 11",improvement in wound contracture being significant
same,"difference in wound size vs placebo, wounds without topical treatment (Wounds 1 to 6)","[2]; 0.6 mg/kg oral BID, Day 8",about 21.6%
same,re-epithelialization,"[2]; 0.6 mg/kg oral BID, Day 17, two animals of the group",complete and stable re-epithelialization
same,speed of wound healing,"[2]; 0.6 mg/kg oral BID, between Day 5 and Day 11, vs placebo and 0.1 mg/kg groups",quicker wound healing compared to the 2 other groups
same,"wound size, wounds without topical treatment (Wounds 1 to 6), dose comparison","[2]; 0.6 mg/kg vs 0.1 mg/kg group, Days 8, 11, 14 and 17",significantly better compared to the 0.1 mg/kg group
same,granulation area,"[3]; 0.3 mg/kg oral, POD 3-7, wounds harvested POD 10, P=0.07 vs control","133,630+20,208 μm^2"
same,epithelial gap,"[3]; 0.3 mg/kg oral, POD 3-7, wounds harvested POD 10, no significant difference vs control","5,212+213 μm"
same,blood flow ratio (flow-ischemia/flow-non-ischemia),"[3]; 0.3 mg/kg, POD 10, P=0.018 vs control",0.495
same,oxygen tension ratio (O2-ischemia/O2-non-ischemia),"[3]; 0.3 mg/kg, POD 10, P=0.079 vs control",0.238
same,change in blood flow ratio from POD 3 to POD 10,"[3]; 0.3 mg/kg, same rabbit, P=0.108 vs control",0.149
same,change in oxygen tension ratio from POD 3 to POD 10,"[3]; 0.3 mg/kg, same rabbit, P=0.322 vs control",0.082
same,perfusion pressure,"[4]; 0.3 mg/kg (most effective dose), 14 d daily treatment",significant increase in perfusion pressure
same,muscle function in the ligated limb,"[4]; 0.1, 0.3 and 1 mg/kg",slight tendency toward improved muscle function
same,perfusion indices,"[4]; 0.1, 0.3 and 1 mg/kg, 2 weeks of daily treatment (FIG. 6)",increase in perfusion indices at all doses
